{"source": "patent US11932874B2", "about": "“Method for culturing mesenchymal stem cells using gamma-irradiated serum” (R Bio CO., Ltd., priority 2018, dated 2024)", "format_in_all_cases": "cell-based", "key": {"[1]": {"system": "human adipose tissue-derived stem cells", "experiment": "Adhesion and proliferation rate of stem cells cultured in 30 kGy gamma-irradiated FBS over passages (Example 6)", "conditions": "30 kGy FBS", "procedure": "Fetal bovine serum (FBS) was irradiated with 30 kGy of gamma radiation, thereby preparing gamma-irradiated FBS. The gamma-irradiated FBS was added to AMSC+ culture medium (R-Bio Co., Ltd.) at a concentration of 5%, and 1% vitamin C was added to the culture medium, thereby preparing a medium (a vitamin C post-treatment group). Then, the human adipose tissue-derived stem cells at passage 1, isolated in Example 1, were thawed and inoculated into T25 flasks at a concentration of 0.7×10^3 cells/T25 flask, and the inoculated cells were cultured with AMSC+ culture medium (R-Bio Co., Ltd.) containing the prepared gamma-irradiated FBS at a concentration of 5% in a CO2 incubator at 37° C. for 2 days. After 2 days of culture, the medium was removed and replaced with AMSC+ culture medium containing 5% normal FBS (a positive control group), or medium obtained by adding vitamin C to AMSC+ culture medium containing 5% gamma-irradiated FBS (a vitamin C post-treatment test group). Vitamin C was added to the culture medium at a concentration of 1%. […] The stem cell adhesion shown in FIGS. 11A-11C was examined with a Leica microscope, and the cell number, cell size and viability shown in Tables 6 to 9 were examined with Luna™ Automated cell counter L10001 (Logos Biosystems)."}, "[2]": {"system": "human adipose tissue-derived stem cells", "experiment": "Viability of stem cells cultured in 30 kGy gamma-irradiated FBS (Example 5): cell number, size, viability, doubling time", "conditions": "30 kGy FBS, 4 days; for Cell No. / Cell size / DT / Viability: average (n = 3)", "procedure": "Fetal bovine serum (FBS) was irradiated with 30 kGy of gamma radiation, thereby preparing gamma-irradiated FBS. Vitamin C (ascorbic acid; L-Ascorbic Acid 2-phosphate) was added to the FBS which was then irradiated with 30 kGy of gamma irradiation, thereby preparing gamma-irradiated FBS pretreated with vitamin C. The vitamin C was added to the FBS at a concentration of 1%. Then, the human adipose tissue-derived stem cells at passage 3, isolated in Example 1, were thawed and inoculated into T75 flasks at a concentration of 0.5×10^6 cells/T75 flask, and the inoculated cells were cultured with AMSC+ culture medium (R-Bio Co., Ltd.) containing the prepared gamma-irradiated FBS or gamma-irradiated FBS pretreated with vitamin C at a concentration of 5% in a CO2 incubator at 37° C. for 2 days. After 2 days of culture, the medium was removed and replaced with AMSC+ culture medium containing 5% gamma-irradiated FBS (a negative control group), medium obtained by adding vitamin C to AMSC+ culture medium containing 5% gamma-irradiated FBS (a vitamin C post-treatment test group), or medium obtained by adding vitamin C to AMSC+ culture medium containing 5% gamma-irradiated FBS pretreated with vitamin C (a vitamin C pre- and post-treatment test group) (Table 4). Vitamin C was added to the culture medium or FBS at a concentration of 1%. After 4 days of culture (FIG. 6), the cell proliferation rate, cell number, viability and doubling time of the stem cells were examined. A positive control group was also prepared as described in Example 2 above. [table]"}, "[3]": {"system": "human adipose tissue-derived stem cells", "experiment": "Culture of stem cells using 25 kGy gamma-irradiated FBS with vitamin C pre- or post-treatment (Example 3): cell number, doubling time", "conditions": "for Cell No. / Doubling time: Ad-MSC (P4), 4 days of culture", "procedure": "After 4 days of culture, the cell proliferation rate and doubling time of the cells were examined. The viability of the cells was examined with a microscope and a hemocytometer, and the doubling time was calculated using the following equation: Doubling Time=duration×log(2)/log(final concentration)−log(initial concentration). [Equation 1] Fetal bovine serum (FBS) was irradiated with 25 kGy of gamma radiation, thereby preparing gamma-irradiated FBS. Vitamin C (ascorbic acid; L-Ascorbic Acid 2-phosphate) was added to the FBS which was then irradiated with 25 kGy of gamma irradiation, thereby preparing gamma-irradiated FBS pretreated with vitamin C. The vitamin C was added to the FBS at a concentration of 0.1% or 1%. Then, the human adipose tissue-derived stem cells at passage 3, isolated in Example 1, were thawed and inoculated into T75 flasks at a concentration of 0.5×10^6 cells/T75 flask, and the inoculated cells were cultured with AMSC+ culture medium (R-Bio Co., Ltd.) containing the prepared gamma-irradiated FBS or gamma-irradiated FBS pretreated with vitamin C at a concentration of 5% in a CO2 incubator at 37° C. for 2 days. After 2 days of culture, the medium was removed and replaced with AMSC+ culture medium containing 5% gamma-irradiated FBS (a negative control group), medium obtained by adding vitamin C to AMSC+ culture medium containing 5% gamma-irradiated FBS (a vitamin C post-treatment test group), or AMSC+ culture medium containing 5% gamma-irradiated FBS pretreated with vitamin C (a vitamin C pre-treatment test group). Vitamin C was added to the culture medium or FBS at a concentration of 0.1 or 1%. After 4 days of culture, the cell proliferation rate and doubling time of the cells were examined in the same manner as described in Example 2 above. A positive control group was also prepared as described in Example 2 above."}, "[4]": {"conditions": "Stem cells #1 P1, 1% vitamin C post-treatment"}, "[5]": {"conditions": "Stem cells #1 P2, 1% vitamin C post-treatment"}, "[6]": {"conditions": "Stem cells #1 P3, 1% vitamin C post-treatment"}, "[7]": {"conditions": "Stem cells #1 P4, 1% vitamin C post-treatment"}, "[8]": {"conditions": "Stem cells #2 P1, 1% vitamin C post-treatment"}, "[9]": {"conditions": "Stem cells #2 P2, 1% vitamin C post-treatment"}, "[10]": {"conditions": "Stem cells #2 P3, 1% vitamin C post-treatment"}, "[11]": {"conditions": "Stem cells #2 P4, 1% vitamin C post-treatment"}, "[12]": {"conditions": "Stem cells #3 P1, 1% vitamin C post-treatment"}, "[13]": {"conditions": "Stem cells #3 P2, 1% vitamin C post-treatment"}, "[14]": {"conditions": "Stem cells #3 P3, 1% vitamin C post-treatment"}, "[15]": {"conditions": "Stem cells #3 P4, 1% vitamin C post-treatment"}, "[16]": {"conditions": "1% Vit. C pre-treatment + 1% Vit. C post-treatment"}, "[17]": {"conditions": "0.1% AA2P post-treatment + 25 KGy"}, "[18]": {"conditions": "0.1% AA2P pre-treatment + 25 KGy"}, "[19]": {"conditions": "1% AA2P post-treatment + 25 KGy"}}}
{"smiles": "O=C1O[C@H]([C@@H](O)CO)C(O)=C1OP(=O)(O)O", "note": "[AA2P, L-Ascorbic Acid 2-phosphate]", "values": [{"measurement": "adhesion, cell number, cell size and viability versus positive control group", "setting": "[1]; 1% vitamin C post-treatment, stem cells at passages 2 to 4", "value": "did not differ from those of the positive control group"}, {"measurement": "Cell number", "setting": "[1]; [4]", "value": "2.4 × 10^7 cells"}, {"measurement": "Cell size", "setting": "[1]; [4]", "value": 19.1, "unit": "μm"}, {"measurement": "Viability", "setting": "[1]; [4]", "value": 84.4, "unit": "%"}, {"measurement": "Cell number", "setting": "[1]; [5]", "value": "1.6 × 10^7 cells"}, {"measurement": "Cell size", "setting": "[1]; [5]", "value": 19.5, "unit": "μm"}, {"measurement": "Viability", "setting": "[1]; [5]", "value": 83, "unit": "%"}, {"measurement": "Cell number", "setting": "[1]; [6]", "value": "2.0 × 10^7 cells"}, {"measurement": "Cell size", "setting": "[1]; [6]", "value": 19.2, "unit": "μm"}, {"measurement": "Viability", "setting": "[1]; [6]", "value": 88.7, "unit": "%"}, {"measurement": "Cell number", "setting": "[1]; [7]", "value": "3.3 × 10^8 cells"}, {"measurement": "Cell size", "setting": "[1]; [7]", "value": 20, "unit": "μm"}, {"measurement": "Viability", "setting": "[1]; [7]", "value": 87.5, "unit": "%"}, {"measurement": "Cell number", "setting": "[1]; [8]", "value": "1.8 × 10^7 cells"}, {"measurement": "Cell size", "setting": "[1]; [8]", "value": 20, "unit": "μm"}, {"measurement": "Viability", "setting": "[1]; [8]", "value": 89.6, "unit": "%"}, {"measurement": "Cell number", "setting": "[1]; [9]", "value": "1.8 × 10^7 cells"}, {"measurement": "Cell size", "setting": "[1]; [9]", "value": 19.3, "unit": "μm"}, {"measurement": "Viability", "setting": "[1]; [9]", "value": 95.5, "unit": "%"}, {"measurement": "Cell number", "setting": "[1]; [10]", "value": "1.2 × 10^7 cells"}, {"measurement": "Cell size", "setting": "[1]; [10]", "value": 19.7, "unit": "μm"}, {"measurement": "Viability", "setting": "[1]; [10]", "value": 88.9, "unit": "%"}, {"measurement": "Cell number", "setting": "[1]; [11]", "value": "1.5 × 10^8 cells"}, {"measurement": "Cell size", "setting": "[1]; [11]", "value": 18.8, "unit": "μm"}, {"measurement": "Viability", "setting": "[1]; [11]", "value": 95.6, "unit": "%"}, {"measurement": "Cell number", "setting": "[1]; [12]", "value": "2.3 × 10^7 cells"}, {"measurement": "Cell size", "setting": "[1]; [12]", "value": 19.6, "unit": "μm"}, {"measurement": "Viability", "setting": "[1]; [12]", "value": 87.1, "unit": "%"}, {"measurement": "Cell number", "setting": "[1]; [13]", "value": "1.4 × 10^7 cells"}, {"measurement": "Cell size", "setting": "[1]; [13]", "value": 18, "unit": "μm"}, {"measurement": "Viability", "setting": "[1]; [13]", "value": 82, "unit": "%"}, {"measurement": "Cell number", "setting": "[1]; [14]", "value": "1.4 × 10^7 cells"}, {"measurement": "Cell size", "setting": "[1]; [14]", "value": 19.3, "unit": "μm"}, {"measurement": "Viability", "setting": "[1]; [14]", "value": 88.2, "unit": "%"}, {"measurement": "Cell number", "setting": "[1]; [15]", "value": "2.1 × 10^8 cells"}, {"measurement": "Cell size", "setting": "[1]; [15]", "value": 17.8, "unit": "μm"}, {"measurement": "Viability", "setting": "[1]; [15]", "value": 88.0, "unit": "%"}, {"measurement": "Cell No.", "setting": "[2]; 1% Vit. C post-treatment", "value": "4.3 ×10^6 cells"}, {"measurement": "Cell size", "setting": "[2]; 1% Vit. C post-treatment", "value": 19.3, "unit": "μm"}, {"measurement": "DT", "setting": "[2]; 1% Vit. C post-treatment", "value": 29.9, "unit": "h"}, {"measurement": "Viability", "setting": "[2]; 1% Vit. C post-treatment", "value": 86.9, "unit": "%"}, {"measurement": "Cell No.", "setting": "[2]; [16]", "value": "5.7 ×10^6 cells"}, {"measurement": "Cell size", "setting": "[2]; [16]", "value": 20.3, "unit": "μm"}, {"measurement": "DT", "setting": "[2]; [16]", "value": 28.1, "unit": "h"}, {"measurement": "Viability", "setting": "[2]; [16]", "value": 86.5, "unit": "%"}, {"measurement": "Cell No.", "setting": "[2]; 1% Vit. C pre-treatment", "value": "5.8 ×10^6 cells"}, {"measurement": "Cell size", "setting": "[2]; 1% Vit. C pre-treatment", "value": 18.8, "unit": "μm"}, {"measurement": "DT", "setting": "[2]; 1% Vit. C pre-treatment", "value": 27.6, "unit": "h"}, {"measurement": "Viability", "setting": "[2]; 1% Vit. C pre-treatment", "value": 92.3, "unit": "%"}, {"measurement": "cell number, viability and doubling time versus positive control group", "setting": "[2]; vitamin C post-treatment test group", "value": "increased to the levels of the positive control group"}, {"measurement": "Cell No.", "setting": "[3]; [17]", "value": "10.6 ×10^6 cells"}, {"measurement": "Doubling time", "setting": "[3]; [17]", "value": 21, "unit": "h"}, {"measurement": "Cell No.", "setting": "[3]; [18]", "value": "10.2 ×10^6 cells"}, {"measurement": "Doubling time", "setting": "[3]; [18]", "value": 21, "unit": "h"}, {"measurement": "Cell No.", "setting": "[3]; [19]", "value": "14.0 ×10^6 cells"}, {"measurement": "Doubling time", "setting": "[3]; [19]", "value": 19, "unit": "h"}, {"measurement": "Cell No.", "setting": "[3]; 1% AA2P pre-treatment + 25 KGy", "value": "10.0 ×10^6 cells"}, {"measurement": "Doubling time", "setting": "[3]; 1% AA2P pre-treatment + 25 KGy", "value": 21, "unit": "h"}, {"measurement": "cell number and doubling time versus positive control group", "setting": "[3]; vitamin C post-treatment and pre-treatment test groups, 25 kGy FBS, 4 days", "value": "increased to the levels of the positive control group"}, {"measurement": "microscope observation of stem cells", "setting": "[3]; vitamin C post-treatment and pre-treatment test groups, 25 kGy FBS, day 4 (FIG. 3)", "value": "levels similar to those of the positive control group"}]}
